Test results published in patent publication US12384753B2, “17-beta-hydroxysteroid dehydrogenase type 13 inhibitors and methods of use thereof” (Enanta Pharmaceuticals, Inc., priority 2021, dated 2025).
pIC50: −log10 of the molar value.

target: Recombinant human HSD17B13 (Homo sapiens (Human), UniProt Q7Z5P4); assay: HSD17B13 rapid-fire mass spectrometry assay (RF/MS assay); format: biochemical; details: inhibition of HSD17B13; LTB4 10 μM, NAD+ 0.5 mM, RT 3 h; IC50 ranges A-E
Method in brief: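 Sf9-expressed human HSD17B13 (80 nM) with 10 μM LTB4 and 0.5 mM NAD+, incubated with compound (0–100 μM) for 3 h at RT in Tris pH 7.5/BSA/Tween-20. After formic acid quench, LTB4 conversion to 12-oxo-LTB4 measured by RapidFire MS/MS. IC50 from normalised residual activity, duplicates.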

Recombinant human HSD17B13, sequence (Q7Z5P4 20-300): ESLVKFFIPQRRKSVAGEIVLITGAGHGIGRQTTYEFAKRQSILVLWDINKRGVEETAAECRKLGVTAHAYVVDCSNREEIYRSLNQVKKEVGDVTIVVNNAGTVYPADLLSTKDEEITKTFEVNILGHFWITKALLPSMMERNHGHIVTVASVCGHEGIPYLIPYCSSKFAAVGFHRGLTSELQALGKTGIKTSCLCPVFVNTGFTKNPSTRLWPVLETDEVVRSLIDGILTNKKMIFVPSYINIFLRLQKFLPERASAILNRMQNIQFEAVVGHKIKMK

SMILES	pIC50
COc1cc(C(=O)O)c(F)cc1NS(=O)(=O)c1csc(-c2ccc(C3CCC(C)(C)CC3)cc2C(F)(F)F)n1 [Example 524, 4-((2-(4-(4,4-dimethylcyclohexyl)-2-(trifluoromethyl)phenyl)thiazole)-4-sulfonamido)-2-fluoro-5-methoxybenzoic acid]	> 7.00
COc1cc(C(=O)O)c(F)cc1NS(=O)(=O)c1csc(-c2ccc(C3CCC(C)(C)CC3)c(OC)c2)n1 [Example 525]	6.00 to 6.30
COc1cc(C(=O)O)c(F)cc1NS(=O)(=O)c1csc(-c2ccc(-c3cccnc3)cc2)n1 [Example 526]	6.30 to 7.00
COc1cc(C(=O)O)c(F)cc1NS(=O)(=O)c1csc(-c2ccc(C3=CCC(C)(C)CC3)c(C)c2)n1 [Example 527]	6.30 to 7.00
COc1cc(C(=O)O)c(F)cc1NS(=O)(=O)c1csc(-c2ccc(C3CCC(C)(C)CC3)c(C)c2)n1 [Example 528]	6.30 to 7.00
COc1cc(C(=O)O)c(F)cc1NS(=O)(=O)c1csc(-c2ccc(C3=CCC(C)(C)CC3)c(CO)c2)n1 [Example 529]	6.30 to 7.00
COc1cc(C(=O)O)c(F)cc1NS(=O)(=O)c1csc(-c2ccc(C3=CCC(C)(C)CC3)c(C(N)=O)c2)n1 [Example 530]	6.00 to 6.30
COc1cc(C(=O)O)c(F)cc1NS(=O)(=O)c1csc(-c2ccc(-c3ccccc3O)cc2)n1 [Example 531]	6.30 to 7.00
COc1cc(C(=O)O)c(F)cc1NS(=O)(=O)c1csc(-c2ccc([C@]3(CO)CC[C@@H](C(F)(F)F)CC3)cc2)n1 [Example 532]	6.00 to 6.30
COc1cc(C(=O)O)c(F)cc1NS(=O)(=O)c1csc(-c2ccc(C3CCC(C)(C)CC3)c(C(N)=O)c2)n1 [Example 533]	6.00 to 6.30
COc1cc(C(=O)O)c(F)cc1NS(=O)(=O)c1csc(-c2ccc(C3CC4CCC(C4)C3)cc2)n1 (stereo not shown) [Example 534]	6.30 to 7.00
COc1cc(C(=O)O)c(F)cc1NS(=O)(=O)c1csc(-c2ccc(C3CC4C(C3)C4(C)C)cc2)n1 (stereo not shown) [Example 535]	> 7.00
COc1cc(C(=O)O)c(F)cc1NS(=O)(=O)c1csc(-c2ccc(C3=CCC(C)(C)CC3)cc2OC)n1 [Example 536]	> 7.00
COc1cc(C(=O)O)c(F)cc1NS(=O)(=O)c1csc(-c2ccc(C3=CCC(C)(C)CC3)c(OC(F)(F)F)c2)n1 [Example 537]	> 7.00
COc1cc(C(=O)O)c(F)cc1NS(=O)(=O)c1csc(-c2ccc(C3=CCC(C)(C)CC3)c3[nH]ncc23)n1 [Example 538]	6.30 to 7.00
COc1cc(C(=O)O)c(F)cc1NS(=O)(=O)c1csc(-c2ccc(C3CCC(C)(C)CC3)cc2OC)n1 [Example 539]	> 7.00
COc1cc(C(=O)O)c(F)cc1NS(=O)(=O)c1csc(-c2ccc(C3CCC(C)(C)CC3)c(OC(F)(F)F)c2)n1 [Example 540]	6.30 to 7.00
COc1cc(C(=O)O)c(F)cc1NS(=O)(=O)c1csc(-c2ccc(C3CCC(C)(C)CC3)c3[nH]ncc23)n1 [Example 541]	> 7.00
COc1cc(C(=O)O)c(F)cc1NS(=O)(=O)c1csc(-c2ccc(C3=CCC(C)(C)CC3)cc2OC(F)(F)F)n1 [Example 542]	> 7.00
COc1cc(C(=O)O)c(F)cc1NS(=O)(=O)c1csc(-c2ccc(C3CCC(C)(C)CC3)cc2OC(F)(F)F)n1 [Example 543]	> 7.00
COc1cc(C(=O)O)c(F)cc1NS(=O)(=O)c1csc(-c2ccc(C3=CCC(C)(C)CC3)cc2C2CC2)n1 [Example 544]	6.30 to 7.00
COc1cc(C(=O)O)c(F)cc1NS(=O)(=O)c1csc(-c2ccc(C3=CCC(C)(C)CC3)c(OC)c2F)n1 [Example 545]	> 7.00

SMILES	pIC50
COc1cc(C(=O)O)c(F)cc1NS(=O)(=O)c1csc(-c2ccc(C3=CCC(C)(C)CC3)c(F)c2OC)n1 [Example 546]	> 7.00
COc1cc(C(=O)O)c(F)cc1NS(=O)(=O)c1csc(-c2ccc(C3CCC(C)(C)CC3)cc2C2CC2)n1 [Example 547]	6.30 to 7.00
COc1cc(C(=O)O)c(F)cc1NS(=O)(=O)c1csc(-c2ccc(C3CCC(C)(C)CC3)c(OC)c2F)n1 [Example 548]	> 7.00
COc1cc(C(=O)O)c(F)cc1NS(=O)(=O)c1csc(-c2ccc(C3CCC(C)(C)CC3)c(F)c2OC)n1 [Example 549]	6.30 to 7.00
COc1cc(C(=O)O)c(F)cc1NS(=O)(=O)c1csc(-c2ccc(C3CC4CCC3CC4)cc2)n1 (stereo not shown) [Example 550]	6.30 to 7.00
COc1cc(C(=O)O)c(F)cc1NS(=O)(=O)c1csc(-c2ccc(C3=CCC(C)(C)CC3)nc2)n1 [Example 551]	6.30 to 7.00
COc1cc(C(=O)O)c(F)cc1NS(=O)(=O)c1csc(-c2cnc(C3=CCC(C)(C)CC3)c(F)c2)n1 [Example 552]	6.30 to 7.00
COc1cc(C(=O)O)c(F)cc1NS(=O)(=O)c1csc(-c2ccc(C3CCC(C)(C)CC3)nc2)n1 [Example 553]	6.30 to 7.00
COc1cc(C(=O)O)c(F)cc1NS(=O)(=O)c1csc(-c2cnc(C3CCC(C)(C)CC3)c(F)c2)n1 [Example 554]	6.30 to 7.00
COc1cc(C(=O)O)c(F)cc1NS(=O)(=O)c1csc(-c2ccc(C3=CCC(C)(C)CC3)cc2-c2ccc(F)cc2)n1 [Example 555]	6.00 to 6.30
COc1cc(C(=O)O)c(F)cc1NS(=O)(=O)c1csc(-c2ccc(C3=CCC(C)(C)CC3)cc2C)n1 [Example 556]	> 7.00
COc1cc(C(=O)O)c(F)cc1NS(=O)(=O)c1csc(-c2ccc(C3=CCC(C)(C)CC3)cc2C(C)C)n1 [Example 557]	6.30 to 7.00
COc1cc(C(=O)O)c(F)cc1NS(=O)(=O)c1csc(-c2ccc(C3CCC(C)(C)CC3)cc2-c2ccc(F)cc2)n1 [Example 558]	6.30 to 7.00
COc1cc(C(=O)O)c(F)cc1NS(=O)(=O)c1csc(-c2ccc(C3CCC(C)(C)CC3)cc2C)n1 [Example 559]	> 7.00
COc1cc(C(=O)O)c(F)cc1NS(=O)(=O)c1csc(-c2ccc(C3CCC(C)(C)CC3)cc2C(C)C)n1 [Example 560]	6.30 to 7.00
COc1cc(C(=O)O)c(F)cc1NS(=O)(=O)c1csc(-c2ccc(C(F)(F)F)nc2C2=CCC(C)(C)CC2)n1 [Example 561]	4.00 to 6.00
COc1cc(C(=O)O)c(F)cc1NS(=O)(=O)c1csc(-c2ccc(C3=CCC(C)(C)CC3)c(F)c2C)n1 [Example 562]	6.30 to 7.00
CCc1cc(C2=CCC(C)(C)CC2)ccc1-c1nc(S(=O)(=O)Nc2cc(F)c(C(=O)O)cc2OC)cs1 [Example 563]	> 7.00
COc1cc(C(=O)O)c(F)cc1NS(=O)(=O)c1csc(-c2ccc(C3=CCC(C)(C)CC3)c(OC(C)C)c2F)n1 [Example 564]	6.30 to 7.00
COc1cc(C(=O)O)c(F)cc1NS(=O)(=O)c1csc(-c2ccc(C3=CCC(C)(C)CC3)cn2)n1 [Example 565]	6.30 to 7.00
COc1cc(C(=O)O)c(F)cc1NS(=O)(=O)c1csc(-c2ccc(C3CCC(C)(C)CC3)c(F)c2C)n1 [Example 566]	> 7.00
COc1cc(C(=O)O)c(F)cc1NS(=O)(=O)c1csc(-c2ccc(C3CCC(C)(C)CC3)c(OC(C)C)c2F)n1 [Example 567]	> 7.00

SMILES	pIC50
CCOc1c(C2=CCC(C)(C)CC2)ccc(-c2nc(S(=O)(=O)Nc3cc(F)c(C(=O)O)cc3OC)cs2)c1F [Example 568]	> 7.00
COc1cc(C(=O)O)c(F)cc1NS(=O)(=O)c1csc(-c2ccc(C3=CCC(C)(C)CC3)c(C)c2F)n1 [Example 569]	> 7.00
CCOc1c(C2CCC(C)(C)CC2)ccc(-c2nc(S(=O)(=O)Nc3cc(F)c(C(=O)O)cc3OC)cs2)c1F [Example 570]	> 7.00
COc1cc(C(=O)O)c(F)cc1NS(=O)(=O)c1csc(-c2ccc(C3CCC(C)(C)CC3)c(C)c2F)n1 [Example 571]	> 7.00
CCc1cc(C2CCC(C)(C)CC2)ccc1-c1nc(S(=O)(=O)Nc2cc(F)c(C(=O)O)cc2OC)cs1 [Example 572]	> 7.00
COc1cc(C(=O)O)c(F)cc1NS(=O)(=O)c1csc(-c2ccc(C3CCC(C)(C)CC3)cn2)n1 [Example 573]	6.30 to 7.00
CC[C@H]1CC[C@H](c2ccc(-c3nc(S(=O)(=O)Nc4cc5c(cc4OC)C(=O)NC5)cs3)cc2)CC1 [Example 574]	4.00 to 6.00
CC[C@H]1CC[C@H](c2ccc(-c3nc(S(=O)(=O)Nc4cc5nc[nH]c(=O)c5cc4OC)cs3)cc2)CC1 [Example 575]	4.00 to 6.00
CCCOc1c(C2=CCC(C)(C)CC2)ccc(-c2nc(S(=O)(=O)Nc3cc(F)c(C(=O)O)cc3OC)cs2)c1F [Example 576]	6.30 to 7.00
COCCOc1c(C2=CCC(C)(C)CC2)ccc(-c2nc(S(=O)(=O)Nc3cc(F)c(C(=O)O)cc3OC)cs2)c1F [Example 577]	6.30 to 7.00
CCCCOc1c(C2=CCC(C)(C)CC2)ccc(-c2nc(S(=O)(=O)Nc3cc(F)c(C(=O)O)cc3OC)cs2)c1F [Example 578]	6.30 to 7.00
CCCOc1c(C2CCC(C)(C)CC2)ccc(-c2nc(S(=O)(=O)Nc3cc(F)c(C(=O)O)cc3OC)cs2)c1F [Example 579]	6.30 to 7.00
COCCOc1c(C2CCC(C)(C)CC2)ccc(-c2nc(S(=O)(=O)Nc3cc(F)c(C(=O)O)cc3OC)cs2)c1F [Example 580]	6.30 to 7.00
CCCCOc1c(C2CCC(C)(C)CC2)ccc(-c2nc(S(=O)(=O)Nc3cc(F)c(C(=O)O)cc3OC)cs2)c1F [Example 581]	6.30 to 7.00
COc1cc(C(=O)O)c(F)cc1NS(=O)(=O)c1csc(-c2ccc(C3=CCC(C)(C)CC3)c(F)c2C(F)F)n1 [Example 582]	> 7.00
COc1cc(C(=O)O)c(F)cc1NS(=O)(=O)c1csc(-c2ccc(C3CCC(C)(C)CC3)c(F)c2C(F)F)n1 [Example 583]	> 7.00
COc1cc(C(=O)O)c(F)cc1NS(=O)(=O)c1csc(-c2ccc(C3=CCC(C(C)C)CC3)c(OC(C)C)c2F)n1 (stereo not shown) [Example 584]	> 7.00
CCCCOc1c(C2=CCC(C(C)C)CC2)ccc(-c2nc(S(=O)(=O)Nc3cc(F)c(C(=O)O)cc3OC)cs2)c1F (stereo not shown) [Example 585]	6.30 to 7.00
COc1cc(C(=O)O)c(F)cc1NS(=O)(=O)c1csc(-c2ccc([C@H]3CC[C@@H](C(C)C)CC3)c(OC(C)C)c2F)n1 [Example 586]	6.30 to 7.00
COc1cc(C(=O)O)c(F)cc1NS(=O)(=O)c1csc(-c2ccc([C@H]3CC[C@H](C(C)C)CC3)c(OC(C)C)c2F)n1 [Example 587]	> 7.00
